Test results published in BindingDB's records for doi:10.1021/jm0606185 (Uppsala University, 2006).

What follows are compounds tested against Type-2 angiotensin II receptor (Sus scrofa) (assay: Displacement of [125I]Ang2 from AT2 receptor in pig uterus membrane).
In the case of `CCCCOC(=O)NS(=O)(=O)c1sc(CCCC)cc1-c1ccc(Cn2ccnc2)cc1` [N-butyloxycarbonyl-3-(4-imidazol-1-ylmethylphenyl)-5-butylthiophene-2-sulfonamide], the Ki is reported as 5 nM. With `CCCCS(=O)(=O)NC(=O)c1sc(CC(C)C)cc1-c1ccc(Cn2ccnc2)cc1` [N-butylsulfonyl-3-(4-imidazol-1-ylmethylphenyl)-5-iso-butylthiophene-2-carboxamide] the Ki was 79 nM. For `COCCOC(=O)NS(=O)(=O)c1sc(CC(C)C)cc1-c1ccc(Cn2ccnc2)cc1` [N-(methyloxy-ethyloxycarbonyl)-3-(4-imidazol-1-ylmethylphenyl)-5-iso-butylthiophene-2-sulfonamide], the Ki was 31 nM. Compound `CCCCc1ccc(S(=O)(=O)NC(=O)OCC)c(-c2ccc(Cn3ccnc3)cc2)c1` [N-ethyloxycarbonyl-2-(4-imidazol-1-ylmethylphenyl)-4-butylbenzenesulfonamide] has a Ki of 2 nM. For `CC(C)Cc1cc(-c2ccc(Cn3ccnc3)cc2)c(S(=O)(=O)NC(=O)OC(C)C)s1` [N-iso-propyloxycarbonyl-3-(4-imidazol-1-ylmethylphenyl)-5-iso-butylthiophene-2-sulfonamide], the Ki was 75 nM. In the case of `CC(C)Cc1cc(-c2ccc(Cn3ccnc3)cc2)c(S(=O)(=O)NC(=O)OC(C)(C)C)s1` [N-tert-butyloxycarbonyl-3-(4-imidazol-1-ylmethylphenyl)-5-iso-butylthiophene-2-sulfonamide], the Ki is reported as 63 nM. In the case of `CCCCOC(=O)NS(=O)(=O)c1ccc(CCCC)cc1-c1ccc(Cn2ccnc2)cc1` [N-butyloxycarbonyl-2-(4-imidazol-1-ylmethylphenyl)-4-butylbenzenesulfonamide], the Ki is reported as 5 nM. In the case of `CCCCS(=O)(=O)NS(=O)(=O)c1sc(CC(C)C)cc1-c1ccc(Cn2ccnc2)cc1` [N-butylsulfonyl-3-(4-imidazol-1-ylmethylphenyl)-5-iso-butylthiophene-2-sulfonamide], the Ki is reported as 76 nM. `CCCCOC(=O)NS(=O)(=O)c1ccc(OC(C)C)cc1-c1ccc(Cn2ccnc2)cc1` [N-butyloxycarbonyl-2-(4-imidazol-1-ylmethylphenyl)-4-iso-propoxybenzenesulfonamide] showed a Ki of 15 nM. `CCCCN(C)C(=O)NS(=O)(=O)c1sc(CC(C)C)cc1-c1ccc(Cn2ccnc2)cc1` [N-(N-butyl-methylaminocarbonyl)-3-(4-imidazol-1-ylmethylphenyl)-5-isobutylthiophene-2-sulfonamide] was tested, and the Ki was 4 nM.
